Data taken from PubChem BioAssay (NCI).
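The compound was tested at five concentrations on cells cultured in 96-well plates, with a 48-hour exposure period. The concentration for 50% growth inhibition is given as GI50. At the TGI there is no net growth.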

What was measured:
Test in all cases: NCI-60 cell line screen, 48 h
[1] = tested on: HCT-15 colon
[2] = tested on: U251 CNS
[3] = tested on: SW-620 colon
[4] = tested on: SF-539 CNS
[5] = tested on: MDA-MB-435
[6] = tested on: EKVX NSCLC
[7] = tested on: MCF7 breast
[8] = tested on: OVCAR-3 ovarian
[9] = tested on: KM12 colon
[10] = tested on: LOX IMVI melanoma
[11] = tested on: UO-31 renal
[12] = tested on: HL-60(TB) leukemia
[13] = tested on: OVCAR-8 ovarian
[14] = tested on: COLO 205 colon
[15] = tested on: SN12C renal
[16] = tested on: OVCAR-5 ovarian
[17] = tested on: MDA-MB-231 breast
[18] = tested on: OVCAR-4 ovarian
[19] = tested on: UACC-62 melanoma
[20] = tested on: SNB-75 CNS
[21] = tested on: NCI/ADR-RES ovarian
[22] = tested on: SR leukemia
[23] = tested on: SF-295 CNS
[24] = tested on: A549 NSCLC
[25] = tested on: SK-MEL-2 melanoma
[26] = tested on: SNB-19 CNS
[27] = tested on: SF-268 CNS
[28] = tested on: BT-549 breast
[29] = tested on: HCT-116 colon
[30] = tested on: TK-10 renal
[31] = tested on: NCI-H460 lung
[32] = tested on: 786-0 renal
[33] = tested on: A498 renal
[34] = tested on: NCI-H226 lung
[35] = tested on: K-562 leukemia
[36] = tested on: CCRF-CEM leukemia
[37] = tested on: SK-OV-3 ovarian
[38] = tested on: HS 578T breast
[39] = tested on: NCI-H522 lung
[40] = tested on: HCC-2998 colon
[41] = tested on: SK-MEL-28 melanoma
[42] = tested on: T-47D breast
[43] = tested on: NCI-H23 lung
[44] = tested on: HOP-92 NSCLC
[45] = tested on: M14 melanoma
[46] = tested on: PC-3 prostate
[47] = tested on: MOLT-4 leukemia
[48] = tested on: ACHN renal
[49] = tested on: HOP-62 NSCLC
[50] = tested on: HT29 colon
[51] = tested on: UACC-257 melanoma
[52] = tested on: IGROV1 ovarian
[53] = tested on: SK-MEL-5 melanoma
[54] = tested on: RPMI-8226 leukemia
[55] = tested on: MALME-3M melanoma
[56] = tested on: RXF 393 renal

## Cc1cc(N(CCNc2ccnc3cc(Cl)ccc23)Cc2ccc3c(c2)OCO3)nc(N2CCN(C)CC2)n1
[1]
  GI50: 1.55 µM
  TGI: 3.82 µM
[2]
  GI50: 2.01 µM
  TGI: 4.25 µM
[3]
  GI50: 2.08 µM
  TGI: 5.41 µM
[4]
  GI50: 1.78 µM
  TGI: 3.33 µM
[5]
  GI50: 1.61 µM
  TGI: 3.07 µM
[6]
  GI50: 4.4 µM
  TGI: 18.9 µM
[7]
  GI50: 2.4 µM
  TGI: 10.9 µM
[8]
  GI50: 2.73 µM
  TGI: 10.9 µM
[9]
  GI50: 4.42 µM
  TGI: 17.7 µM
[10]
  GI50: 1.79 µM
  TGI: 3.66 µM
[11]
  GI50: 1.43 µM
  TGI: 2.85 µM
[12]
  GI50: 2.06 µM
  TGI: 4.27 µM
[13]
  GI50: 3.18 µM
  TGI: 11.2 µM
[14]
  GI50: 1.86 µM
  TGI: 3.69 µM
[15]
  GI50: 3.77 µM
  TGI: 14.2 µM
[16]
  GI50: 5.5 µM
  TGI: 18.3 µM
[17]
  GI50: 1.77 µM
  TGI: 4.32 µM
[18]
  GI50: 2.83 µM
  TGI: 13.9 µM
[19]
  GI50: 1.9 µM
  TGI: 3.51 µM
[20]
  GI50: 1.44 µM
  TGI: 3.04 µM
[21]
  GI50: 3.26 µM
  TGI: 14.7 µM
[22]
  GI50: 1.5 µM
  TGI: 4.43 µM
[23]
  GI50: 1.72 µM
  TGI: 3.42 µM
[24]
  GI50: 3.51 µM
  TGI: 12.8 µM
[25]
  GI50: 1.98 µM
  TGI: 4.02 µM
[26]
  GI50: 3.78 µM
  TGI: 13 µM
[27]
  GI50: 2.42 µM
  TGI: 7.89 µM
[28]
  GI50: 2.17 µM
  TGI: 5.54 µM
[29]
  GI50: 1.41 µM
  TGI: 4.7 µM
[30]
  GI50: 1.81 µM
  TGI: 3.61 µM
[31]
  GI50: 2.65 µM
  TGI: 7.86 µM
[32]
  GI50: 1.59 µM
  TGI: 3.29 µM
[33]
  GI50: 2.43 µM
  TGI: 8.85 µM
[34]
  GI50: 17.7 µM
  TGI: 36.8 µM
[35]
  GI50: 1.16 µM
  TGI: 3.93 µM
[36]
  GI50: 2.98 µM
  TGI: 9.31 µM
[37]
  GI50: 9.55 µM
  TGI: 21.6 µM
[38]
  GI50: 1.87 µM
  TGI: 5.2 µM
[39]
  GI50: 1.85 µM
  TGI: 3.81 µM
[40]
  GI50: 2.12 µM
  TGI: 4.88 µM
[41]
  GI50: 1.89 µM
  TGI: 3.53 µM
[42]
  GI50: 2.05 µM
  TGI: 4.64 µM
[43]
  GI50: 6.39 µM
  TGI: 22.3 µM
[44]
  GI50: 1.29 µM
  TGI: 2.96 µM
[45]
  GI50: 1.89 µM
  TGI: 3.55 µM
[46]
  GI50: 4.59 µM
  TGI: 17.7 µM
[47]
  GI50: 2.09 µM
  TGI: 8.36 µM
[48]
  GI50: 2.52 µM
  TGI: 5.78 µM
[49]
  GI50: 2.22 µM
  TGI: 15.4 µM
[50]
  GI50: 1.84 µM
  TGI: 5.96 µM
[51]
  GI50: 2.01 µM
  TGI: 3.79 µM
[52]
  GI50: 3.09 µM
  TGI: 12.7 µM
[53]
  GI50: 1.79 µM
  TGI: 3.25 µM
[54]
  GI50: 1.88 µM
  TGI: 5.23 µM
[55]
  GI50: 1.77 µM
  TGI: 3.36 µM
[56]
  GI50: 1.43 µM
  TGI: 3.17 µM
